Results from the kinase profiling compilation of Christmann-Franck et al. (2016).

Key:
Assay in all cases: KINOMEscan competition binding
CDKL2 (human) = CDKL2 (human) (UniProt Q92772); conditions: compound 10.0 µM
IKBKB (human) = IKBKB (human) (UniProt O14920); conditions: compound 10.0 µM
PAK2 (human) = PAK2 (human) (UniProt Q13177); conditions: compound 10.0 µM
MAPKAPK5 (human) = MAPKAPK5 (human) (UniProt Q8IW41); conditions: compound 10.0 µM
OXSR1 (human) = OXSR1 (human) (UniProt O95747); conditions: compound 10.0 µM
MAP3K13 (human) = MAP3K13 (human) (UniProt O43283); conditions: compound 10.0 µM
FGR (human) = FGR (human) (UniProt P09769); conditions: compound 10.0 µM
LIMK1 (human) = LIMK1 (human) (UniProt P53667); conditions: compound 10.0 µM
DSTYK (human) = DSTYK (human) (UniProt Q6XUX3); conditions: compound 10.0 µM
Sequence of DSTYK (human) (Q6XUX3 whole entry, looked up): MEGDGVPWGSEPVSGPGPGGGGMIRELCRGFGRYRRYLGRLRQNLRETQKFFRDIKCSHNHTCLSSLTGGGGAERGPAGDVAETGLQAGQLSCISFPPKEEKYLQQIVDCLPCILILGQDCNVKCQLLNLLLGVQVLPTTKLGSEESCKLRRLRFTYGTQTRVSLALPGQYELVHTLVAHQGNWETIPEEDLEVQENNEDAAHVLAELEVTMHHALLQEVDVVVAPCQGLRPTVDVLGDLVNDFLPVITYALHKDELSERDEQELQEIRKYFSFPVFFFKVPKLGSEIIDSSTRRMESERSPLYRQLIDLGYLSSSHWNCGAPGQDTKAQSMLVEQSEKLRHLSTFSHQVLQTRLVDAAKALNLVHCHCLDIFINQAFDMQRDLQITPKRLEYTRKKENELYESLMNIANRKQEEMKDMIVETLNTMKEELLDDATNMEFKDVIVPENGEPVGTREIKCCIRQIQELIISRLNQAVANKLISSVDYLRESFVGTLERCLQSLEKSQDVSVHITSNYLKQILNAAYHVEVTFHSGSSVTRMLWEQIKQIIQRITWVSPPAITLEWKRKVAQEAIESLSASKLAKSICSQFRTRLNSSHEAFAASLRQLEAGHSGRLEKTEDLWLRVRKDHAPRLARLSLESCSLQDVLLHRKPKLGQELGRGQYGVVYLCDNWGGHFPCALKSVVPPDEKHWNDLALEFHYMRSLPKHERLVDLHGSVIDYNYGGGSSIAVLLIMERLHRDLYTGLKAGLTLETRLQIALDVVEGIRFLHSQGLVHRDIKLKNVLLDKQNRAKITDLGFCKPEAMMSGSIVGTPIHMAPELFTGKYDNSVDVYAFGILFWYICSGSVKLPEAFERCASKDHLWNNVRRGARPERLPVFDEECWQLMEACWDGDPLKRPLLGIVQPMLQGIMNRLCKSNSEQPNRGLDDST

CHEK2 (human) = CHEK2 (human) (UniProt O96017); conditions: compound 10.0 µM
DDR1 (human) = DDR1 (human) (UniProt Q08345); conditions: compound 10.0 µM
BRSK1 (human) = BRSK1 (human) (UniProt Q8TDC3); conditions: compound 10.0 µM
BMX (human) = BMX (human) (UniProt P51813); conditions: compound 10.0 µM
FGFR3 (human) = FGFR3 (human) (UniProt P22607); conditions: compound 10.0 µM
STK16 (human) = STK16 (human) (UniProt O75716); conditions: compound 10.0 µM
MAST1 (human) = MAST1 (human) (UniProt Q9Y2H9); conditions: compound 10.0 µM
MAP3K2 (human) = MAP3K2 (human) (UniProt Q9Y2U5); conditions: compound 10.0 µM
PRKG2 (human) = PRKG2 (human) (UniProt Q13237); conditions: compound 10.0 µM
LCK (human) = LCK (human) (UniProt P06239); conditions: compound 10.0 µM
MAP2K1 (human) = MAP2K1 (human) (UniProt Q02750); conditions: compound 10.0 µM
Sequence of MAP2K1 (human) (Q02750 whole entry, looked up): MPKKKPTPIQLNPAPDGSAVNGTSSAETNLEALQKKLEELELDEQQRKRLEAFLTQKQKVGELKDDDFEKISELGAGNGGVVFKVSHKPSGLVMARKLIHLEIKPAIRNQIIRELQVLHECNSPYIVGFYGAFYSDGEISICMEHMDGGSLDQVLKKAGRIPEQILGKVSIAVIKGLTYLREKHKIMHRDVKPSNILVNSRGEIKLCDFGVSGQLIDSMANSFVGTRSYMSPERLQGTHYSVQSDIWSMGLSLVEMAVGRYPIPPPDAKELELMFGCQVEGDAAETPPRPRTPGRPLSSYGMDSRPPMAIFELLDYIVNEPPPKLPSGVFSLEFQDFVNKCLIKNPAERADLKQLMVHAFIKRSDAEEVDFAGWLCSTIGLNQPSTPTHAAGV

MAP3K9 (human) = MAP3K9 (human) (UniProt P80192); conditions: compound 10.0 µM
RPS6KA4 KD1 (human) = RPS6KA4 KD1 (human) (UniProt O75676); conditions: compound 10.0 µM
EPHA4 (human) = EPHA4 (human) (UniProt P54764); conditions: compound 10.0 µM
PRKAA2 (human) = PRKAA2 (human) (UniProt P54646); conditions: compound 10.0 µM
FLT3 (human) = FLT3 (human) (UniProt P36888); conditions: compound 10.0 µM
Sequence of FLT3 (human) (P36888 whole entry, looked up): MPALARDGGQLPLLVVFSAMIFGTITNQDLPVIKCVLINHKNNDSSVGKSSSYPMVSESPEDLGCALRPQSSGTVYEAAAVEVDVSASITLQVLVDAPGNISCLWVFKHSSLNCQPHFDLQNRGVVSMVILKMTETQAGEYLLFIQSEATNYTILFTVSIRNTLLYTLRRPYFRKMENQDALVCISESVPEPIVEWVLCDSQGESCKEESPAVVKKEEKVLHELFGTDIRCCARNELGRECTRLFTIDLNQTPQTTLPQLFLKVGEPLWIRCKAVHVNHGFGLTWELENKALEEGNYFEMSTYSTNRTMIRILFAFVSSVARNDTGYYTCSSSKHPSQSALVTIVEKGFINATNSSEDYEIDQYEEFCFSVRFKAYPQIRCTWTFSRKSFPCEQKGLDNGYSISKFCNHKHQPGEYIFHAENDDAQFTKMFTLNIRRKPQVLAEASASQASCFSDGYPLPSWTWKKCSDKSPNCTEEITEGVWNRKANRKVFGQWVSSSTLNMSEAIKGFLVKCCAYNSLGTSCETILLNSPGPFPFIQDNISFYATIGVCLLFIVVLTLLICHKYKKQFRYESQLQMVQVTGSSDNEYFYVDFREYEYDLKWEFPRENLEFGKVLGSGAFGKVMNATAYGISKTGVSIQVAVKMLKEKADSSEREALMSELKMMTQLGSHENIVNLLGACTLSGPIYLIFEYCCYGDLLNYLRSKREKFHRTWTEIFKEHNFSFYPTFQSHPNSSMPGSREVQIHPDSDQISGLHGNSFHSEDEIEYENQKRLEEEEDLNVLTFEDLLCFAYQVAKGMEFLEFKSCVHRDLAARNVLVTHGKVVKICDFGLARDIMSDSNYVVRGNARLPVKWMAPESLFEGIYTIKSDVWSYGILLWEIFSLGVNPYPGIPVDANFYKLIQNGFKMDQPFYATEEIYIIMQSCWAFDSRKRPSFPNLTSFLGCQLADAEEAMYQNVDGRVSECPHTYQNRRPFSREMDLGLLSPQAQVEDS

MYLK2 (human) = MYLK2 (human) (UniProt Q9H1R3); conditions: compound 10.0 µM
NEK11 (human) = NEK11 (human) (UniProt Q8NG66); conditions: compound 10.0 µM
GRK7 (human) = GRK7 (human) (UniProt Q8WTQ7); conditions: compound 10.0 µM
Sequence of GRK7 (human) (Q8WTQ7 whole entry, looked up): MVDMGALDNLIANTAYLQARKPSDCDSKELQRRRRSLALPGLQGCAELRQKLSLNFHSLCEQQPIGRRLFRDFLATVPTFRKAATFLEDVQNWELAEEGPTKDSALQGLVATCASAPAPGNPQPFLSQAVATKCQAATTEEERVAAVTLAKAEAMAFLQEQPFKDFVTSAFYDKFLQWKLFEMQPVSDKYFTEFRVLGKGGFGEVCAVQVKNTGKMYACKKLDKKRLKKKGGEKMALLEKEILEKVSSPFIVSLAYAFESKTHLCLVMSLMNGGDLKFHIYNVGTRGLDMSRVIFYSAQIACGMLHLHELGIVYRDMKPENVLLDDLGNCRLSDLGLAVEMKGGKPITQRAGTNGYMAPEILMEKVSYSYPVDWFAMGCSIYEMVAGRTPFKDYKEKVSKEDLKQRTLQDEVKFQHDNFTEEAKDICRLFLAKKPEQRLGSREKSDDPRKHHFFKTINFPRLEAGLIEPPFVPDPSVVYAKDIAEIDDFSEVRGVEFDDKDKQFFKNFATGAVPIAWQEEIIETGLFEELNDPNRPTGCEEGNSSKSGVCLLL

EPHA8 (human) = EPHA8 (human) (UniProt P29322); conditions: compound 10.0 µM
NEK2 (human) = NEK2 (human) (UniProt P51955); conditions: compound 10.0 µM
HCK (human) = HCK (human) (UniProt P08631); conditions: compound 10.0 µM
RIOK3 (human) = RIOK3 (human) (UniProt O14730); conditions: compound 10.0 µM
HIPK3 (human) = HIPK3 (human) (UniProt Q9H422); conditions: compound 10.0 µM
Sequence of HIPK3 (human) (Q9H422 whole entry, looked up): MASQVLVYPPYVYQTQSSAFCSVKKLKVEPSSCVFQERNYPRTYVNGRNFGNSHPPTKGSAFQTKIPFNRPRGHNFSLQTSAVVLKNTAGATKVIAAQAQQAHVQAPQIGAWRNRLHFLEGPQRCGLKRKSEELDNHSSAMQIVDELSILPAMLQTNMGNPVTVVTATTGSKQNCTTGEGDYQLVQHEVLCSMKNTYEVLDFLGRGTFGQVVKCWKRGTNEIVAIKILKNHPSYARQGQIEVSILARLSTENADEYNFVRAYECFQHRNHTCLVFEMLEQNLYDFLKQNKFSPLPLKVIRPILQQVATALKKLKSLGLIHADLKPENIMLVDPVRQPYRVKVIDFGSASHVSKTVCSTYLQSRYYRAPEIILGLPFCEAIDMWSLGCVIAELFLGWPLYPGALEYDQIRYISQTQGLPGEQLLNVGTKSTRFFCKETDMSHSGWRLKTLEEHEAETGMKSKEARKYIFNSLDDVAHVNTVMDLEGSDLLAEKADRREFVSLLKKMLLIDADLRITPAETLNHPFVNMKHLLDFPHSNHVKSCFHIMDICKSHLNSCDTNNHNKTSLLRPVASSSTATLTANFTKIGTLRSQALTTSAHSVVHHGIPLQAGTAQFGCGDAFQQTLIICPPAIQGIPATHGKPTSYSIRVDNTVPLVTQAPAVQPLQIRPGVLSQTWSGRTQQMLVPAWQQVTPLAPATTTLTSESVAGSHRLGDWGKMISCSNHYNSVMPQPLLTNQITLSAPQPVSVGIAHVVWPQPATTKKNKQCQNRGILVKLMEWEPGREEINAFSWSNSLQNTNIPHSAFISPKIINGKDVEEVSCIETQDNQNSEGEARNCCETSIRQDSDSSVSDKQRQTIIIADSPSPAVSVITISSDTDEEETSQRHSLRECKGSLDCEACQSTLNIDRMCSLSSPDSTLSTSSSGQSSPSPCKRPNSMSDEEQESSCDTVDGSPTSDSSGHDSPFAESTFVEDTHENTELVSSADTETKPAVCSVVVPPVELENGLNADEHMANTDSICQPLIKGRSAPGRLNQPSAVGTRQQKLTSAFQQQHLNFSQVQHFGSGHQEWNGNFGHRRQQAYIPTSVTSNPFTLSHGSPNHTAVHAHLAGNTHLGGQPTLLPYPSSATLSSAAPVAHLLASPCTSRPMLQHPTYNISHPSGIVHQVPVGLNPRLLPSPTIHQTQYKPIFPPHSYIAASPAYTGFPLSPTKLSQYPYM

PKN1 (human) = PKN1 (human) (UniProt Q16512); conditions: compound 10.0 µM
PLK4 (human) = PLK4 (human) (UniProt O00444)
Sequence of PLK4 (human) (O00444 whole entry, looked up): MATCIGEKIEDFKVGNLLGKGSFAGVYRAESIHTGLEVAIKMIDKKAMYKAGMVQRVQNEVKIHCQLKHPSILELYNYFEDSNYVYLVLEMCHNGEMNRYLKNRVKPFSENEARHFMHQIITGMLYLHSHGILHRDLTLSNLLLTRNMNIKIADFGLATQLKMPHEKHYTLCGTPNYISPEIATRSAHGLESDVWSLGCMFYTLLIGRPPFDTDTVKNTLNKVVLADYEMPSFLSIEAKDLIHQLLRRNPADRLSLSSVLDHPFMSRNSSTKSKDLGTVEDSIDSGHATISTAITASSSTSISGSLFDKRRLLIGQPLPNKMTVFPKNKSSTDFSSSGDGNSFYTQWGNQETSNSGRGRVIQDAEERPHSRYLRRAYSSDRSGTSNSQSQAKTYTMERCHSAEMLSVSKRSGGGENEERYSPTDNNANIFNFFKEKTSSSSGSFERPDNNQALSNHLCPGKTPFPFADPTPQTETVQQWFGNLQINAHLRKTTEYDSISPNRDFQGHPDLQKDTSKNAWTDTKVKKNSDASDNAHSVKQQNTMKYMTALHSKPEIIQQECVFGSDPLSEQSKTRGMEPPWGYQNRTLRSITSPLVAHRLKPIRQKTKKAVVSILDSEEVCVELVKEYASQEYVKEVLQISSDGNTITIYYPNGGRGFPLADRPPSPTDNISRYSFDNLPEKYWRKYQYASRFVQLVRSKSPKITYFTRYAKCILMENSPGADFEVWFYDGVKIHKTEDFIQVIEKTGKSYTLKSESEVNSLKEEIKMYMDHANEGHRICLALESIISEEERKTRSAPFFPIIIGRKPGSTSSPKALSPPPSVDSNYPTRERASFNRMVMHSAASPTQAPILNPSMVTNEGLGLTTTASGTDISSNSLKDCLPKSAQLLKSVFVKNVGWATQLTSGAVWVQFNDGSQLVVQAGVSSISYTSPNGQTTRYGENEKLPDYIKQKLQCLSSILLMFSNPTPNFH

CAMK2D (human) = CAMK2D (human) (UniProt Q13557); conditions: compound 10.0 µM
EPHB1 (human) = EPHB1 (human) (UniProt P54762); conditions: compound 10.0 µM
GSK3B (human) = GSK3B (human) (UniProt P49841); conditions: compound 10.0 µM
PRKCI (human) = PRKCI (human) (UniProt P41743); conditions: compound 10.0 µM
PDGFRA (human) = PDGFRA (human) (UniProt P16234); conditions: compound 10.0 µM
EPHA2 (human) = EPHA2 (human) (UniProt P29317); conditions: compound 10.0 µM

`COc1cc(C(=O)N2CCC(N3CCN(C)CC3)CC2)ccc1Nc1ncc2c(n1)N(C)c1ccccc1C(=O)N2C` gave a residual activity (CDKL2 (human)) of 100%, a kinase still bound, per cent of control (IKBKB (human)) of 89% and a kinase still bound, per cent of control (PAK2 (human)) of 65%. It also gave a kinase still bound, per cent of control (MAPKAPK5 (human)) of 97%, a kinase still bound, per cent of control (OXSR1 (human)) of 88% and a kinase still bound, per cent of control (MAP3K13 (human)) of 100%. For the same compound, the kinase still bound, per cent of control (FGR (human)) was 84%, the kinase still bound, per cent of control (LIMK1 (human)) was 95% and the kinase still bound, per cent of control (DSTYK (human)) was 16%. The kinase still bound, per cent of control (CHEK2 (human)) was 66%, the kinase still bound, per cent of control (DDR1 (human)) was 100% and the kinase still bound, per cent of control (BRSK1 (human)) was 81%. The kinase still bound, per cent of control (BMX (human)) was 87%, the kinase still bound, per cent of control (FGFR3 (human)) was 80% and the kinase still bound, per cent of control (STK16 (human)) was 62%. It also gave a kinase still bound, per cent of control (MAST1 (human)) of 100%, a kinase still bound, per cent of control (MAP3K2 (human)) of 97% and a kinase still bound, per cent of control (PRKG2 (human)) of 74%. It also gave a kinase still bound, per cent of control (LCK (human)) of 100%, a kinase still bound, per cent of control (MAP2K1 (human)) of 100% and a kinase still bound, per cent of control (MAP3K9 (human)) of 93%. The kinase still bound, per cent of control (RPS6KA4 KD1 (human)) was 100%, the kinase still bound, per cent of control (EPHA4 (human)) was 89% and the kinase still bound, per cent of control (PRKAA2 (human)) was 66%. For the same compound, the kinase still bound, per cent of control (FLT3 (human)) was 100%, the kinase still bound, per cent of control (MYLK2 (human)) was 98% and the kinase still bound, per cent of control (NEK11 (human)) was 100%. It also gave a kinase still bound, per cent of control (GRK7 (human)) of 100%, a kinase still bound, per cent of control (EPHA8 (human)) of 80% and a kinase still bound, per cent of control (NEK2 (human)) of 100%. For the same compound, the kinase still bound, per cent of control (HCK (human)) was 100%, the kinase still bound, per cent of control (RIOK3 (human)) was 85% and the kinase still bound, per cent of control (HIPK3 (human)) was 89%. It also gave a kinase still bound, per cent of control (PKN1 (human)) of 100%, a Kd (PLK4 (human)) of 16 nM and a kinase still bound, per cent of control (PLK4 (human); compound 10.0 µM) of 0%. The kinase still bound, per cent of control (CAMK2D (human)) was 28%, the kinase still bound, per cent of control (EPHB1 (human)) was 98% and the kinase still bound, per cent of control (GSK3B (human)) was 88%. The kinase still bound, per cent of control (PRKCI (human)) was 100%, the kinase still bound, per cent of control (PDGFRA (human)) was 100% and the kinase still bound, per cent of control (EPHA2 (human)) was 92%.
